The source of these data is PMC9602792, “Preclinical evaluation of the epithelial sodium channel inhibitor AZD5634 and implications on human translation” (American Journal of Physiology - Lung Cellular and …, 2022).

Where only a bound is given, the exact number is not on record here.

On the set-up of data set [1]: method as in unpublished information. The following applies: ref unpublished information, cited from earlier work.
For data set [2], the system named is amiloride-sensitive potential difference. Set-up: method as in PMID 35227647. The conditions noted are these: perfused to the nasal surface, people with CF; cited from earlier work.
In data set [3] the test system is F508del-homozygous HBEC cultures. Put plainly: μOCT imaging of ASL depth, MCT rate and CBF in F508del-homozygous CF HBEC cultures. In kind it is cell-based, human. The conditions noted are these: AZD5634 1 µM apical. On the procedure: Using previously described techniques ([2], [37]), epithelial cells were harvested from excised lung tissue derived from CF donors homozygous for F508del CFTR, expanded, and grown until confluency was attained. The cells were then seeded on 6.5-mm-diameter, 24-well Transwell permeable membrane supports coated with NIH 3T3 fibroblast unconditioned media (0.5 × 10^6 cells/filter; Corning Inc., Corning, NY) and further allowed to mature in differentiating media (PneumaCult ALI, […] Technologies, Cambridge, MA) for a minimum of 4–5 wk until fully differentiated. To stimulate fresh mucus secretion and formation of an even ASL layer, the cells were washed 48–72 h before experimentation with PneumaCult ALI media (80 µL), added apically, and then aspirated following 30–45 min incubation at 37°C. The washing process was repeated with a 15-min incubation period and the mucus layer was allowed to reestablish, after which the cells were treated with 1 µL of AZD5634 (1 µM, apical), alone and in combination with lumacaftor and ivacaftor (luma/iva; 3 µM/10 µM, basolateral). PBS (1% DMSO, apical) served as a vehicle control. […] Only passage 1 and 2 monolayers were used for these studies.
μOCT imaging and analysis were conducted in vitro and ex vivo as detailed in previous publications ([2], [39]–[41]). […] Following imaging of HBEC cultures and of excised trachea and lungs, images were assessed to obtain quantitative measurements of mucociliary transport (MCT) rate, ASL depth, and ciliary beat frequency (CBF). MCT rates were calculated by analyzing the distance traveled by native particles in the mucus layer over time across multiple frames. […] CBF was determined by using custom code developed in Matlab (Mathworks, Natick, MA) to quantify the reflectance of beating cilia by Fourier analysis. […]
Descriptive statistics were calculated and means compared using unpaired or paired t tests, or ANOVA, with post hoc analyses conducted for multiple comparisons where appropriate. […]

For data set [4], the system named is HBECs grown under ALI conditions. In words: Gravimetric measurement of ASL (fluid retention) in HBEC ALI cultures. In kind it is cell-based, human. The conditions noted are these: gravimetric ALI assay; concentrations of 0.1 µM and above. The method, then:
After 3–4 wk, the HBEC ALI cultures were washed with PBS twice before the experiment was initiated. Thirty microliters of either vehicle or test compound (10 μM) was added apically and inserts were weighed after removal of basolateral fluid as a crude but simple way to measure retention of fluid on the apical side of the airway cultures. The weighing procedure was repeated at 4, 8, and 24 h.

On to AZD5634, for which the hyperkalemia entry in data set [1] (after inhalation and/or nebulization) is “does not cause hyperkalemia”. In data set [1], the renal clearance entry is “minimal”. For the same substance, the “effect on amiloride-sensitive nasal potential difference” value in data set [2] was “acutely inhibited amiloride-sensitive potential difference”. The ASL depth in data set [3] (6 h, luma/iva 3 µM/10 µM basolateral, absolute values) worked out at 24.8 ± 3.6 µm. In addition, the CBF in data set [3] (absolute value) is reported as 8.6 ± 0.5 Hz. Also, the MCT rate in data set [3] (luma/iva 3 µM/10 µM basolateral, absolute values) turned out to be 2.5 ± 0.5 mm/min. In data set [4], the “duration of (fluid-retaining) effect on ASL” value was more than 24 h.
